Experimental data: publication PMC4269415, “Replication Attempt: “Effect of BMAP-28 Antimicrobial Peptides on Leishmania Major Promastigote and Amastigote Growth: Role of Leishmanolysin in Parasite Survival”” (PLoS ONE, 2014)
Several values for one entry are separate records, joined by “and”; a condition that tells them apart may be missing. Identical values can stand only once. Like-named read-outs stand apart in the source and are kept apart here. Square brackets hold non-standard residues; d marks the D form. Ends that are not written are not given here. Peptide text beside a SMILES is read from it.

Legend:
[1] = tested on: Leishmania major promastigotes (strain MHOM/SN/74/SD); format: cell-based; details: for % Viability (mean), replication: % of untreated control, calculated from the dose response curve; for % Viability (mean), combined original and replication: meta-analysis combining original and replication studies; for d Effect Size (Cohen's d), combined: original and replication combined
Protocol: The promastigote viability assays were conducted by the Anti-Infectives Screening Core Facility at New York University School of Medicine (https://www.scienceexchange.com/facilities/anti-infectives-screening-and-insectary-core-facilities-nyu). All assays were performed by investigators blinded to the reagents under study. 500 µM stocks of peptides were made by resuspending 4 mg of each peptide (M.W. 3131.92) in 2.554 mL of distilled sterile water. Each peptide was tested in triplicate three independent times at 50 µM, 25 µM, 12.5 µM, 6.25 µM, 3.125 µM, 1.5625 µM, 0.78125 µM, and 0.390625 µM. L. major strain MHOM/SN/74/SD (ATCC, PRA-384) was used in these studies. These cells were routinely cultured at 26°C in M-199 medium (Gibco, Grand Island, NY), supplemented with 10% heat inactivated fetal calf serum (Hyclone, Logan) and Pen/Strep (Gibco, Grand Island, NY). Mid-log phase promastigotes at concentrations of 5×10^6 per well were seeded in 96-well tissue culture plates. Heat-killed parasites, prepared by incubation at 99°C for 30 minutes, served as positive controls for the viability assays. Peptides were incubated with the cells for 4 hours at 26°C. A 20 µL volume of PrestoBlue (Life Technologies, Carlsbad, CA) was added to each well and incubated at 37°C for 3 hours. Fluorescence at excitation 530 nm and 590 nm emission wavelengths was measured using a plate reader (VICTOR, Perkin Elmer, US). Background fluorescence from media alone controls was subtracted from each reading and promastigote viability was expressed as a percentage of the untreated control.
An independent-samples t-test was conducted to compare promastigote viability in peptide treated and untreated conditions. A Fisher combined probability test was used to combine the original and replication studies values into a single combined study value for each peptide and peptide concentration. To provide a standardized measure of the effect we used cohen's d.

[2] = tested on: Leishmania major promastigotes; test: Promastigote viability assay of the original study (Fig. 1A of Lynn et al.); format: cell-based; details: from data of ref Lynn et al. [5]
[3] = tested on: Leishmania major promastigotes; details: 4 h, % of untreated control, determined from bar graph Fig. 1A, ref Lynn et al. [5], cited from earlier work
Protocol: Table 1 Promastigote viability assay of Leishmania major when treated with 0.5 µM or 2 µM BMAP-28 variants. | column: % Viability (mean) || This study describes an attempt to replicate experiments from the paper “Effect of BMAP-28 Antimicrobial Peptides on Leishmania major Promastigote and Amastigote Growth: Role of Leishmanolysin in Parasite Survival,” which was submitted to the Reproducibility Initiative for independent validation. The cathelicidin bovine myeloid antimicrobial peptide 28 (BMAP-28) and its isomers were previously shown to have potent antiparasitic activity against Leishmania major.

[4] = tested on: mammalian epithelial cells and monocytes; details: cited from earlier work
[5] = 0.5 µM peptide, 4 h, three biological replicates
[6] = 2 µM peptide, 4 h, three biological replicates

Molecule | % Viability (mean), replication [1, 5] [%] | % Viability (mean), combined original and replication ([1]; 0.5 µM peptide) | d Effect Size (Cohen's d), combined ([1]; 2 µM peptide vs untreated) | % Viability (mean), replication [1, 6] [%] | IC50 ([1]; 4 h) [µM] | IC90 ([1]; 4 h) [µM] | d Effect Size (Cohen's d), original study ([2]; 0.5 µM peptide vs untreated) | d Effect Size (Cohen's d), original study ([2]; 2 µM peptide vs untreated) | % Viability (mean), original study ([3]; 0.5 µM peptide) [%] | % Viability (mean), original study ([3]; 2 µM peptide) | toxicity to mammalian epithelial cells and monocytes (in words) [4] | d Effect Size (Cohen's d), replication ([1]; 0.5 µM peptide vs untreated) | d Effect Size (Cohen's d), combined ([1]; 0.5 µM peptide vs untreated) | d Effect Size (Cohen's d), replication ([1]; 2 µM peptide vs untreated) | % Viability (mean), combined original and replication ([1]; 2 µM peptide) [%] | IC50 ([1]; 4 h at 26°C, PrestoBlue fluorescence, dose-response 0.39-50 µM, three biological replicates in triplicate, read-out: IC50, promastigote viability) [µM] | IC90 ([1]; 4 h at 26°C, PrestoBlue fluorescence, dose-response 0.39-50 µM, three biological replicates, read-out: IC90, promastigote viability) [µM]
CC[C@@H](C)[C@@H](NC(=O)[C@H]1CCCN1C(=O)CNC(=O)[C@@H](Cc1ccc(O)cc1)NC(=O)[C@@H](CCCCN)NC(=O)[C@@H](CCCCN)NC(=O)[C@@H](Cc1c[nH]c2ccccc12)NC(=O)[C@@H](C)NC(=O)[C@@H](CCCNC(=N)N)NC(=O)[C@@H](CC(C)C)NC(=O)[C@H](NC(=O)[C@@H](CCCCN)NC(=O)[C@@H](CCCNC(=N)N)NC(=O)CNC(=O)[C@@H](CC(C)C)NC(=O)[C@@H](CO)NC(=O)[C@@H](CCCNC(=N)N)NC(=O)[C@@H](CC(C)C)NC(=O)CNC(=O)CN)[C@H](C)CC)C(=O)N[C@@H](C(=O)N[C@@H](C(=O)N1CCC[C@@H]1C(=O)N[C@@H](C(=O)N[C@@H](C(=O)N[C@H](CCCNC(=N)N)C(=O)N[C@@H](C(=O)NCC(=O)O)[C@H](C)CC)[C@H](C)CC)[C@H](C)CC)C(C)C)[C@H](C)CC [D-BMAP-28] (H-GG[dL][dR][dS][dL]G[dR][dK][dI][dL][dR][dA][dW][dK][dK][dY]G[dP][dI][dI][dV][dP][dI][dI][dR][dI]G-OH; N-terminus assumed) | 92.40 | not significantly modified | 16.67 | 73.26 | 3.55 | 9.85 | 2.55 | 37.8 | 68.75 | 6% and 5.50% |  |  |  |  |  |  | 
CC[C@@H](C)[C@@H](NC(=O)CN)C(=O)N[C@H](CCCNC(=N)N)C(=O)N[C@@H](C(=O)N[C@@H](C(=O)N1CCC[C@@H]1C(=O)N[C@@H](C(=O)N[C@@H](C(=O)N[C@@H](C(=O)N1CCC[C@@H]1C(=O)NCC(=O)N[C@H](Cc1ccc(O)cc1)C(=O)N[C@H](CCCCN)C(=O)N[C@H](CCCCN)C(=O)N[C@H](Cc1c[nH]c2ccccc12)C(=O)N[C@H](C)C(=O)N[C@H](CCCNC(=N)N)C(=O)N[C@H](CC(C)C)C(=O)N[C@@H](C(=O)N[C@H](CCCCN)C(=O)N[C@H](CCCNC(=N)N)C(=O)NCC(=O)N[C@H](CC(C)C)C(=O)N[C@H](CO)C(=O)N[C@H](CCCNC(=N)N)C(=O)N[C@H](CC(C)C)C(=O)NCC(=O)NCC(=O)O)[C@H](C)CC)[C@H](C)CC)[C@H](C)CC)C(C)C)[C@H](C)CC)[C@H](C)CC [RI-BMAP-28] (H-G[dI][dR][dI][dI][dP][dV][dI][dI][dP]G[dY][dK][dK][dW][dA][dR][dL][dI][dK][dR]G[dL][dS][dR][dL]GG-OH; N-terminus assumed) | 94.64 | not significantly modified | 6.31 | 76.64 | 4.55 | 20 | −1.20 | 6.88 | 103.00 | 18% and 17.50% | limited toxicity |  |  |  |  |  | 
GGLRSLGRKILRAWKKYGPIIVPIIRI-NH2 [L-BMAP-28-NH2, amidated L-BMAP-28 peptide] | 95.55 | 99.40% | 2.65 | 94.15 |  |  |  |  |  |  |  | 0.62 | 0.11 | 0.81 | 75.45 | 5.83 | 10.2
GGLRSLGRKILRAWKKYGPIIVPIIRIG [L-BMAP-28] |  |  |  |  | 17.1 | 25.2 |  |  |  |  |  |  |  |  |  |  | 
